Where two headings read alike, the source gives them in different places.
Experiments:
[1] = Cytotoxicity by WST-8 assay, HEK293; assay type: cell-based, human; conditions: human, HEK293 cells, Table 3, 48 hours
Method: (§1) Subsequently, the following cell types: HL60 (human promyelocytic leukemia cells), HeLa (human cervical cancer cells), C3H10T1/2 (murine multipotential mesenchymal cells), and HEK293 (human embryonic kidney 293 cells); were treated with metal complexes M-L6 (M=Zn, Fe, Cu, Co, Ni, and Mn) for 48 hours, and then subjected to WST-8 assay to perform evaluation of the cytotoxicity of each kind of metal complex.

[2] = system: chloroquine-resistant strain; assay: Antimalarial activity against a chloroquine-resistant strain; assay type: cell-based; conditions: result in words
[3] = Cytotoxicity by WST-8 assay, C3H10T1/2; assay type: cell-based, murine; conditions: mouse, C3H10T1/2 cells, Table 3, 48 hours
Method: as §1

[4] = system: mouse malaria parasites (Plasmodium berghei ANKA strain); assay: Life-prolonging effect in malaria-infected mice, oral administration; assay type: in vivo; conditions: oral 200 mg/kg on Day 1, Day 3, and Day 6
Method: (§2) To mice (7 weeks old, Balb/c, male), erythrocytes infected with mouse malaria parasites (Plasmodium berghei ANKA strain) (total number of erythrocytes per mouse, about 10^7; rate of malaria-infected erythrocytes, 0.3%) were intraperitoneally injected. L6 was administered (20 mg/kg, intraperitoneal injection) to each of the thus obtained malaria-infected mice, and the rate of malaria-infected erythrocytes was measured. As a result, on Day 2 to Day 6 after the infection, the infection rate tended to increase in the negative control to which only DMSO was administered. […] The effect of L6 to reduce the infection rate was almost equivalent to the effect of an existing drug, chloroquine (CQ).
To malaria-infected mice obtained by the same procedure as in Experiment 4, an aqueous solution of L6 or the zinc complex Zn-L6 was orally administered (at a dose of 200 mg/kg on Day 1, Day 3, and Day 6; N=6), and changes in the number of surviving individuals were investigated. […] That is, it is thought that, by formation of metal complex with zinc ion, L6 can remarkably suppress the toxicity in vivo while sufficiently maintaining the antimalarial activity.

[5] = system: drug-resistant malaria parasite K1 strain; assay: Antimalarial activity by LDH assay, K1 strain; assay type: cell-based, Plasmodium falciparum; conditions: Plasmodium falciparum
Method: (§3) The LDH assay was carried out according to the following procedure. That is, 0.5 μL of a solution of each compound in DMSO was added to 100 μL of a culture liquid of erythrocytes (88% RPMI solution; 2% erythrocytes, provided by the Japanese Red Cross Society; and 10% human serum, provided by the Japanese Red Cross Society) infected with falciparum malaria parasites (Plasmodium falciparum: 3D7 strain) (infection rate of erythrocytes, 0.3%). The resulting culture liquid was subjected to culture in a 96-well plate under an atmosphere of 5% CO2, 5% O2, and 90% N2 at 37° C. for three days. Subsequently, the culture liquid was cooled at −80° C. for three hours, and then returned to room temperature. After addition of 150 μL of an LDH enzyme reaction liquid (0.15 mg/mL diaphorase, 37.5 μL/mL of 50% sodium lactate, 0.17 mg/mL NBT, 0.11 mg/mL APAD, 0.16 mL/mL of 1 M Tris-HCl (pH 8), and 8.3 μL/mL of Tween 20), the absorbance at 620 nm was measured.
(§4) According to the same procedure as in Experiment 1, the antimalarial activities of metal complexes (M-L6) synthesized by mixing various kinds of metal ions (MSO4: M=Zn, Fe, Cu, Co, Ni, or Mn) with L6 at a molar ratio of 1:1 were evaluated by LDH assay.
According to the same procedure as in Experiment 1, the antimalarial activities of L18 and di-2-pyridylketone 4,4-dimethyl-3-thiosemicarbazone (Sigma) against the malaria parasite 3D7 strain and the drug-resistant malaria parasite K1 strain were evaluated by LDH assay.
According to the same procedure as in Experiment 1, the antimalarial activities of 4′-(4-Pyridyl)-2,2′:6′,2″-terpyridine (Tokyo Chemical Industry) against the malaria parasite 3D7 strain and the drug-resistant malaria parasite K1 strain were evaluated by LDH assay.

[6] = Cytotoxicity by WST-8 assay, tsNRK; assay type: cell-based; conditions: rat, tsNRK cells
Method: (§5) After treating various kinds of cells (HEK293T: human embryonic kidney cells; HeLa: human cervical cancer cells; NIH3T3: mouse fibroblast cells; tsNRK: rat kidney cells; and 3Y1: rat fibroblasts) with a metal chelator for 48 hours, the cytotoxicities of the cells were evaluated by WST-8 assay.

[7] = system: human cells (HEK293T and HeLa); assay: Cytotoxicity by WST-8 assay, summary for human cells; assay type: cell-based; conditions: 48 hours, read-out: concentration at which toxicity is exerted (IC50 value)
Method: as §5

[8] = Cytotoxicity by WST-8 assay, NIH3T3; assay type: cell-based; conditions: mouse, NIH3T3 cells, NIH3T3, 48 hours
Method: as §5

[9] = Cytotoxicity by WST-8 assay, HEK293T; assay type: cell-based; conditions: human, HEK293T cells
Method: as §5

[10] = system: Dd2 strain (drug-resistant malaria parasites); assay: Antimalarial activity by LDH assay, Dd2 strain; assay type: cell-based, Plasmodium falciparum; conditions: Plasmodium falciparum
[11] = system: mouse malaria parasites (Plasmodium berghei ANKA strain); assay: Effect to suppress malaria infection in malaria-infected mice; assay type: in vivo; conditions: Balb/c mice, 20 mg/kg intraperitoneal injection, Day 2 to Day 6 after infection
Method: as §2

[12] = Cytotoxicity by WST-8 assay, 3Y1; assay type: cell-based; conditions: rat, 3Y1 cells, 3Y1, 48 hours
Method: as §5

[13] = Cytotoxicity by WST-8 assay, HL60; assay type: cell-based, human; conditions: human, HL60 cells, Table 3, 48 hours
Method: as §1

[14] = system: Plasmodium falciparum: 3D7 strain; assay: Antimalarial activity by LDH assay, 3D7 strain; assay type: cell-based; conditions: for IC50: Plasmodium falciparum
Method: Compounds that chelate metal ions in various modes (L1 to L25 in FIG. 1) were selected, and their antimalarial activities were evaluated by LDH assay. Since infection with malaria causes an increase in the LDH activity, the evaluation can be made based on the criteria that the lower the detected LDH activity, the higher the antimalarial activity.
as §3
By the same procedure as in Experiment 1, erythrocytes infected with malaria were treated with L6 (about 40 nM) together with iron ion (about 50 μM), copper ion (about 1 μM), or zinc ion (about 10 μM), and the antimalarial activity was evaluated by LDH assay.
as §4

[15] = system: mouse malaria parasites (Plasmodium berghei ANKA strain); assay: Life-prolonging effect after infection with malaria, intraperitoneal; assay type: in vivo; conditions: malaria-infected mice, 20 mg/kg intraperitoneal injection
[16] = Cytotoxicity by WST-8 assay, HeLa; assay type: cell-based, human; conditions: human, HeLa cells
Method: as §5, §1

Q: Which results are given for `c1ccc(CN(Cc2ccccn2)Cc2ccccn2)nc1` [L6, Tris(2-pyridylmethyl)amine]?
A: IC50 at 48 h [1]: 6000 nM; antimalarial activity against a chloroquine-resistant strain [2]: exhibit antimalarial activity also against a chloroquine-resistant strain; IC50 at 48 h [3]: 5700 nM; toxicity in vivo [4]: influence of toxicity appears; IC50 ([5]; read-out: IC50 antimalarial activity against the K1 strain): 80 to 160 nM; IC50 ([5]; read-out: IC50 antimalarial activity, K1): 82 nM; IC50 at 48 h ([6]; 1st measurement): 1880 nM; IC50 at 48 h ([6]; 2nd measurement): 1900 nM; IC50 [7]: 5080 to 5610 nM; IC50 at 48 h ([8]; 1st measurement): 1800 nM; IC50 at 48 h ([8]; 2nd measurement): 1950 nM; IC50 at 48 h ([9]; 1st measurement): 5080 nM; IC50 at 48 h ([9]; 2nd measurement): 5310 nM; IC50 ([10]; DD2, read-out: IC50 antimalarial activity against the Dd2 strain): 80 to 160 nM; IC50 ([10]; DD2, read-out: IC50 antimalarial activity, Dd2): 144 nM; rate of malaria-infected erythrocytes (infection rate) [11]: infection rate could be remarkably suppressed; IC50 at 48 h ([12]; 1st measurement): 2420 nM; IC50 at 48 h ([12]; 2nd measurement): 3870 nM; IC50 at 48 h [13]: 1800 nM; antimalarial activity (LDH assay, FIG. 2) ([14]; 10 nM to 10 μM, result in words): remarkable antimalarial activity; antimalarial activity of L6 together with added metal ion ([14]; L6 about 40 nM with excess zinc ion (about 10 μM)): suppression of the antimalarial activity was found to some extent; IC50 ([14]; 3D7, 3D7 strain, values in text, read-out: IC50 value for the antimalarial activity based on the LDH assay): ~31 nM; IC50 ([14]; 3D7, read-out: IC50 antimalarial activity, 3D7): 84 nM; life-prolonging effect (number of surviving individuals) [15]: remarkable life-prolonging effect; IC50 at 48 h ([16]; HeLa, 48 hours, 1st measurement (Table 1), read-out: IC50 value, cytotoxicity): 5610 nM; IC50 at 48 h ([16]; HeLa, 48 hours, 2nd measurement (Table 1), read-out: IC50 value, cytotoxicity): 5160 nM; IC50 at 48 h ([16]; Table 3, 48 hours, WST-8, read-out: IC50 cytotoxicity, HeLa): 5800 nM

From patent US10292976B2, “Anti-malarial agent” (RIKEN, priority 2014, dated 2019)
